Results from patent publication US4317775A (Hoffmann-La Roche Inc., priority 1980, dated 1982).
Structures can show the parent of a compound that is named as a salt.

Key:
[1] = tested on: S. pyogenes; test: In vivo activity against systemic infection in mice, S. pyogenes
Description: (§1) The PD50 is the protective dose for 50% of the animals treated against a challenge organism.

[2] = tested on: K. pneumoniae; test: In vivo activity against systemic infection in mice, K. pneumoniae; details: in mg/kg
Description: as §1

[3] = tested on: S. pneumoniae II; test: In vivo activity against systemic infection in mice, S. pneumoniae II
Description: as §1

[4] = tested on: Klebsiella pneumoniae; test: In vitro activity (MIC/MBC), Klebsiella pneumoniae; type: cell-based; details: for MBC: read-out: Minimum Inhibitory Concentration (MBC); for MIC: read-out: Minimum Inhibitory Concentration (MIC)
Description: (§2) MIC is the Minimum Inhibitory Concentration. MBC is the Minimum Bactericidal Concentration.
(§3) Results reported in Table 3(a) are reported as MIC defined above and results reported in Table 3(b) are reported as MBC defined above.

[5] = tested on: P. aeruginosa; test: In vivo activity against systemic infection in mice, P. aeruginosa
Description: as §1

[6] = tested on: E. coli; test: In vivo activity against systemic infection in mice, E. coli; details: in mg/kg
Description: as §1

[7] = tested on: Streptococcus pyogenes; test: In vitro activity (MIC/MBC), Streptococcus pyogenes; type: cell-based; details: for MBC: read-out: Minimum Inhibitory Concentration (MBC); for MIC: read-out: Minimum Inhibitory Concentration (MIC)
Description: as §2, §3

[8] = tested on: S. pneumoniae I; test: In vivo activity against systemic infection in mice, S. pneumoniae I
Description: as §1

[9] = tested on: P. mirabilis; test: In vivo activity against systemic infection in mice, P. mirabilis; details: in mg/kg
Description: as §1

[10] = tested on: Proteus vulgari; test: In vitro activity (MIC/MBC), Proteus vulgari; type: cell-based
Description: as §2, §3

[11] = tested on: Escherichia coli; test: In vitro activity (MIC/MBC), Escherichia coli; type: cell-based; details: for MBC: read-out: Minimum Inhibitory Concentration (MBC); for MIC: read-out: Minimum Inhibitory Concentration (MIC)
Description: as §2, §3

[12] = in vivo; details: mouse
[13] = tested on: Staphylococcus aureus; test: In vitro activity (MIC/MBC), Staphylococcus aureus; type: cell-based; details: for MBC: read-out: Minimum Inhibitory Concentration (MBC); for MIC: read-out: Minimum Inhibitory Concentration (MIC)
Description: as §2, §3

[14] = tested on: S. schottmuelleri; test: In vivo activity against systemic infection in mice, S. schottmuelleri
Description: as §1

[15] = tested on: Streptococcus pneumoniae I; test: In vitro activity (MIC/MBC), Streptococcus pneumoniae I; type: cell-based
Description: as §2, §3

[16] = tested on: S. typhosa; test: In vivo activity against systemic infection in mice, S. typhosa
Description: as §1

[17] = tested on: Salmonella typhosa; test: In vitro activity (MIC/MBC), Salmonella typhosa; type: cell-based; details: Salmonella enterica
Description: as §2, §3

[18] = tested on: Salmonella schottmuelleri; test: In vitro activity (MIC/MBC), Salmonella schottmuelleri; type: cell-based
Description: as §2, §3

[19] = MBC, read-out: Minimum Inhibitory Concentration (MBC)
[20] = read-out: Minimum Inhibitory Concentration (MIC)

| SMILES | PD50 ([1]; oral) [mg/kg] | PD50 ([1]; subcutaneous) [mg/kg] | PD50 ([2]; oral) | PD50 ([2]; subcutaneous) | MBC [4] [µg/mL] | MIC [4] [µg/mL] | PD50 ([6]; oral) | PD50 ([6]; subcutaneous) | MBC [7] [µg/mL] | MIC [7] [µg/mL] | PD50 ([8]; oral) [mg/kg] | PD50 ([8]; subcutaneous) [mg/kg] | MBC [11] [µg/mL] | MIC [11] [µg/mL] | LD50 ([12]; ip) [mg/kg] | LD50 ([12]; po) [mg/kg] | LD50 ([12]; sc) [mg/kg] | MBC [13] [µg/mL] | MIC [13] [µg/mL] | further results |
| --- | --- | --- | --- | --- | --- | --- | --- | --- | --- | --- | --- | --- | --- | --- | --- | --- | --- | --- | --- | --- |
| CC1(C)S[C@@H]2[C@H](NC(=O)[C@H](NC3CCCS3)c3ccc(O)cc3)C(=O)N2[C@H]1C(=O)O (relative stereo) [Compound III, {2S-[2α,5α,6β(S*)]}-6-{[tetrahydro-2-thienylamino-(4-hydroxyphenyl)acetyl]amino}-3,3-dimethyl-7-oxo-4-thia-1-azabicyclo[3.2.0]heptane-2-carboxylic acid sodium salt] | 6.3 | 4.1 | 15.5 | 5.3 | 1.11 | 0.554 | 18.7 | 19.4 | > 8.88 | 0.554 | 4.7 | 2.5 | 4.44 | 4.44 | 668 | 558 | 598 | 0.138 | 0.138 | PD50 ([3]; oral): 3.2 mg/kg; PD50 ([3]; subcutaneous): 3.2 mg/kg; PD50 ([5]; oral): > 142 mg/kg; PD50 ([5]; subcutaneous): > 142 mg/kg; PD50 ([9]; oral): 3.8; PD50 ([9]; subcutaneous): 2.5; MBC [10, 19]: 0.554 µg/mL; MIC [10, 20]: 0.554 µg/mL |
| CC1(C)S[C@@H]2[C@H](NC(=O)[C@H](NC3CCCO3)c3ccc(O)cc3)C(=O)N2[C@H]1C(=O)O (relative stereo) [Compound I, {2S-[2α,5α,6β(S*)]}-6-{[2-tetrahydrofuranylamino(4-hydroxyphenyl)acetyl]amino}-3,3-dimethyl-7-oxo-4-thia-1-azabicyclo[3.2.0]heptane-2-carboxylic acid sodium salt] | 3.8 | 7 | 9.9 | 3.8 | 0.71 | 0.71 | 23.8 | 8.2 | 2.84 | 0.022 | 1.5 | 0.7 | 5.69 | 5.69 | 3220 | 9100 | 4550 | 0.177 | 0.177 | PD50 ([14]; oral): 5.4 mg/kg; PD50 ([14]; subcutaneous): 2.4 mg/kg; MBC [15, 19]: 0.022 µg/mL; MIC [15, 20]: 0.022 µg/mL; PD50 ([16]; oral): 8 mg/kg; PD50 ([16]; subcutaneous): 7.3 mg/kg; MBC ([17]; read-out: Minimum Inhibitory Concentration (MBC), MBC, Salmonella typhosa): 0.35 µg/mL; MIC ([17]; read-out: Minimum Inhibitory Concentration (MIC), Salmonella typhosa): 0.35 µg/mL; MBC ([18]; MBC, Salmonella schottmuelleri, read-out: Minimum Inhibitory Concentration (MBC)): 1.42 µg/mL; MIC ([18]; Salmonella, read-out: Minimum Inhibitory Concentration (MIC)): 0.71 µg/mL |
